Source: patent US11339151B2, “Aliphatic acid amide derivative” (Sumitomo Dainippon Pharma Co., Ltd., priority 2019, dated 2022)
pIC50, pKi: −log10 of the molar value.

Key:
hERG channel = hERG channel (Homo sapiens (Human), UniProt Q12809); assay: Test 5: inhibitory activity for hERG channel (whole cell patch clamp, hERG-CHO cells); type: cell-based; conditions: hERG-CHO cells, auto patch clamp
Description: Test 5: Evaluation of Inhibitory Activity for hERG Channel
Inhibitory activity of the present compound for hERG channel was measured by whole cell patch clamp method with an auto patch clamp system using CHO cells in which hERG channel involved in human rapidly activating delayed rectifier potassium current (IKr) was forcibly expressed.
hERG-CHO cells purchased from ChanTest Cop. were cultured in a CO2 incubator at 37° C., and dissociated from a flask with trypsin shortly before the measurement of hERG current to prepare a cell suspension.
The cell suspension, the extracellular fluid, the intracellular fluid, and the measurement plate were set in an auto patch clamp system, and hERG current was measured by whole cell patch clamp method. […] Each pulse interval was 15 seconds. The data analysis was carried out with Qube Assay Software (Sophion Sophion). The test was carried out by applying incrementally 4 concentrations of each test compound, and the average of the maximum peak tail currents which were obtained from the last 3 stimulations in each concentration was determined as the evaluated data.

[1] = Test 3-1: metabolic stability test in human hepatic microsome; type: in vitro ADME; conditions: microsome 0.1 mg/mL, test compound 0.1 μmol/L, 37° C., 30 minutes
Description: Test 3-1: Metabolic Stability Test in Human Hepatic Microsome
The metabolic stability of the present compound in human hepatic microsome was evaluated as mentioned below. Human hepatic microsome was obtained from Xenontech. Human hepatic microsome, NADPH, and each test compound were mixed in 25 mmol/L phosphate buffer solution (pH 7.4) to reach the following concentrations as shown below, and the mixture was incubated at 37° C. for 30 minutes. • Human hepatic microsome: 0.1 mg/mL • NADPH: 3.2 mmol/L • Test compound: 0.1 μmol/L
The residual ratio of test compound in each sample after 30 minutes was measured by LC-MS, and the metabolic stability in human hepatic microsome was calculated from the following formula. Metabolic stability in human hepatic microsome (mL/min/mg protein)=−LN (residual ratio)/30/0.1

human 5-HT7 receptor [2] = target: T1, human 5-HT7 receptor (Homo sapiens (Human), UniProt P34969); assay: Test 2: antagonist activity for human 5-HT7 receptor (aequorin luminescence, CHO-K1 cells); type: cell-based; conditions: Gα16
Description: Test 2: Evaluation of Antagonist Activity for Human 5-HT2A Receptor and Human 5-HT7 Receptor
Aequorin, Gα 16 protein, and each receptor were transiently expressed in CHO-K1 cells (Chinese hamster ovary). The cells were cultivated in a CO2 incubator at 37° C. overnight, seeded into a 384-well plate, and stood at room temperature for 2 hours. Each compound dissolved in DMSO was added thereto, and changes in luminescence were measured by FDSS/μCELL drug discovery screening support system (Hamamatsu Photonics K.K.). As for antagonist activity, inhibitory activity of each compound was calculated by setting the luminescence level of wells to which 10 μmol/L endogenous ligand was added as 100%.

human 5-HT7 receptor [3] = target: T1, human 5-HT7 receptor; assay: Test 1: binding activity for human 5-HT7 receptor ([3H]SB-269970, CHO cell membrane fraction); conditions: [3H]SB-269970, room temperature 60 minutes
Description: (§1) Ki value was evaluated from dissociation constant which was calculated from saturated binding tests, and a substrate concentration, and it was used as an index for binding affinity.

human D2 receptor = human D2 receptor (Homo sapiens (Human), UniProt P14416); assay: Test 1: binding activity for human D2 receptor ([3H]Spiperone, CHO cell membrane fraction); conditions: [3H]Spiperone, room temperature 60 minutes
Description: as §1

T1 sequence (P34969 whole entry): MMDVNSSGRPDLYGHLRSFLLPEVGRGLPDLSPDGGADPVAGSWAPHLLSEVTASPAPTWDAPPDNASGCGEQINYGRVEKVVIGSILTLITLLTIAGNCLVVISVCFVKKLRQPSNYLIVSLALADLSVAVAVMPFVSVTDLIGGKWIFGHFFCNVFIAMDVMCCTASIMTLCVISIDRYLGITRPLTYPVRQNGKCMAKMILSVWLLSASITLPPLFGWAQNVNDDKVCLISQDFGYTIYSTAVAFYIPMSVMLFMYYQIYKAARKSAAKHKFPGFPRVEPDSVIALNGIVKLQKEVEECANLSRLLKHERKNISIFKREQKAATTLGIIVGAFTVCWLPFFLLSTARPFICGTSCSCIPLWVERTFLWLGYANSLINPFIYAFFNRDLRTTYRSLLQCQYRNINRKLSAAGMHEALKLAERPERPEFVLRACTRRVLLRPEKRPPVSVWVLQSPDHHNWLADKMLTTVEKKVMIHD
hERG channel, sequence (Q12809 whole entry): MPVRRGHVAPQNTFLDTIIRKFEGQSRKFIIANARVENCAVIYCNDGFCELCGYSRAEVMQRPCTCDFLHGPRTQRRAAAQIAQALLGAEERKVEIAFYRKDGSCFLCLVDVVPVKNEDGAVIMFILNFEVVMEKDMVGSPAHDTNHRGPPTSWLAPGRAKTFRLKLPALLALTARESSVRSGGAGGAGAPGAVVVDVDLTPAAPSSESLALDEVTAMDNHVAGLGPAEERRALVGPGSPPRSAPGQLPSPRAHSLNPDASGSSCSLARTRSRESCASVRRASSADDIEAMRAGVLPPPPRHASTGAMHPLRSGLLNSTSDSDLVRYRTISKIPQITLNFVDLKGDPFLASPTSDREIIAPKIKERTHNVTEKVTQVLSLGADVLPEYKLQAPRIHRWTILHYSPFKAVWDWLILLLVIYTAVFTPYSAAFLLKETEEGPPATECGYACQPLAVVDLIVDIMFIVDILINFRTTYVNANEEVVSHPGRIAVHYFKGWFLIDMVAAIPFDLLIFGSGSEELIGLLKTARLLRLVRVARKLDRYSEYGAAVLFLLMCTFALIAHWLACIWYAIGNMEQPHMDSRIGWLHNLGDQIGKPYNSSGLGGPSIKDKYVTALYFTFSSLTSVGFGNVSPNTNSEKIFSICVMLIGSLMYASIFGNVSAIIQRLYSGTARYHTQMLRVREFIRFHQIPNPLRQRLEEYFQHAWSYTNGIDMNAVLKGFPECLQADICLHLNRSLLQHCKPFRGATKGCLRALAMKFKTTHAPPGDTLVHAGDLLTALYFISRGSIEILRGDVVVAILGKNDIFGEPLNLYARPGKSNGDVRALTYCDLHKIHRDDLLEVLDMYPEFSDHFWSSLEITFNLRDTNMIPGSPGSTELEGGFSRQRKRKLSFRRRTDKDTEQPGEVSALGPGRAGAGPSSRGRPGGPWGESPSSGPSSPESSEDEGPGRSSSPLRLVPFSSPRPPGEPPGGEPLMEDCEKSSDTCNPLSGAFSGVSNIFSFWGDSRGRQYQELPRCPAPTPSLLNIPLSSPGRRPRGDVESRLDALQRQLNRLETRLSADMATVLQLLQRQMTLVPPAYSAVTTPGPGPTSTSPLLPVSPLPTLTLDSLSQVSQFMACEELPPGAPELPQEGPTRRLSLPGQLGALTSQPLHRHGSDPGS
human D2 receptor, sequence (P14416 whole entry): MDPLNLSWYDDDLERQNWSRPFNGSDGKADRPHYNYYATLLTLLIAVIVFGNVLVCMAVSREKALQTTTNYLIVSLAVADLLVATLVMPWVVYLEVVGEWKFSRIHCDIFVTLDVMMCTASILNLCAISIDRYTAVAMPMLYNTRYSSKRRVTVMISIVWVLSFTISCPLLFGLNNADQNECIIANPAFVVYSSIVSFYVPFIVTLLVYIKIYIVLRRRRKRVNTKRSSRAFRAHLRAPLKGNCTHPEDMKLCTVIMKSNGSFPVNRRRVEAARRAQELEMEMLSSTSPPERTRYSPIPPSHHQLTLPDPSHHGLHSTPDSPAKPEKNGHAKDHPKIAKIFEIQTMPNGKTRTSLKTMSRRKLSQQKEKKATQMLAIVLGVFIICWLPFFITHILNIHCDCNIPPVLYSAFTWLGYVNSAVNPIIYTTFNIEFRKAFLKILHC

| SMILES | Metabolic stability in human hepatic microsome [1] | pIC50 (human 5-HT7 receptor [2]) | pKi (human 5-HT7 receptor [3]) | pKi (human D2 receptor) | pIC50 (hERG channel) |
| --- | --- | --- | --- | --- | --- |
| CCN(CCN1CCC(c2noc3cc(F)ccc23)CC1)C(=O)[C@@H](C)O [Example 1, (2R)—N-Ethyl-N-{2-[4-(6-fluoro-1,2-benzoisoxazol-3-yl)piperidin-1-yl]ethyl}-2-hydroxypropanamide] | <0.05 mL/min/mg protein |  |  |  | 5.32 |
| CCN(CCN1CCC(n2ncc3cc(F)ccc32)CC1)C(=O)[C@@H](C)O [Example 3, (2R)—N-Ethyl-N-{2-[4-(5-fluoro-1H-indazol-1-yl)piperidin-1-yl]ethyl}-2-hydroxypropanamide] | <0.05 mL/min/mg protein |  |  | < 6.00 | < 5.00 |
| CCN(CCN1CCC(c2noc3cc(F)ccc23)CC1)C(=O)C(C)O (stereo not shown) [Example 4] | <0.05 mL/min/mg protein |  |  |  | 5.15 |
| CCN(CCN1CCC(c2noc3cc(F)ccc23)CC1)C(=O)C(C)(C)O [Example 6] | 0.053 mL/min/mg protein | 7.18 | 8.24 | 6.56 | 5.82 |
| CCN(CCN1CCC(c2noc3cc(F)ccc23)CC1)C(=O)C(C)(C)CO [Example 7] | 0.08 mL/min/mg protein | 7.96 | 9.00 | 7.10 | 5.46 |
| CCN(CCN1CCC(c2noc3cc(F)ccc23)CC1)C(=O)C(O)C(C)C (stereo not shown) [Example 8] | 0.108 mL/min/mg protein | 8.10 | 8.21 | 6.53 | 5.38 |
| CCN(CCN1CCC(c2n[nH]c3cc(F)ccc23)CC1)C(=O)C(C)O (stereo not shown) [Example 19, N-Ethyl-N-{2-[4-(6-fluoro-1H-indazol-3-yl)piperidin-1-yl]ethyl}-2-hydroxypropanamide] | <0.05 mL/min/mg protein | 7.21 | 8.64 | 6.98 | < 5.00 |
| CCN(CCN1CCC(c2c[nH]c3cc(F)ccc23)CC1)C(=O)[C@H](C)O [Example 20, (2S)—N-Ethyl-N-{2-[4-(6-fluoro-1H-indol-3-yl)piperidin-1-yl]ethyl}-2-hydroxypropanamide] | <0.05 mL/min/mg protein | 7.32 | 8.82 | 7.34 |  |
| CCN(CCN1CCC(n2ncc3cc(F)ccc32)CC1)C(=O)[C@H](C)O [Example 21, (2S)—N-Ethyl-N-{2-[4-(5-fluoro-1H-indazol-1-yl)piperidin-1-yl]ethyl}-2-hydroxypropanamide] | <0.05 mL/min/mg protein |  |  | < 6.00 | 4.82 |
| C#CC(O)C(=O)N(CC)CCN1CCC(c2noc3cc(F)ccc23)CC1 (stereo not shown) [Example 28] |  | 7.10 | 8.00 | > 7.00 |  |
| CCN(CCN1CCC(c2noc3cc(F)ccc23)CC1)C(=O)C(F)(F)CO [Example 36] | <0.05 mL/min/mg protein | 7.09 | 9.00 | 7.10 |  |
| CCCN(CCN1CCC(c2noc3cc(F)ccc23)CC1)C(=O)C(C)O (stereo not shown) [Example 39] | <0.05 mL/min/mg protein | 8.05 | 9.15 | > 7.00 |  |
| CCN(CCN1CCC(c2noc3cc(F)ccc23)CC1)C(=O)[C@H]1CC[C@@H](O)CC1 [Example 44] | <0.05 mL/min/mg protein | 7.11 | 8.49 | > 7.00 |  |
| CCN(CCCN1CCN(c2noc3cc(F)ccc23)CC1)S(=O)(=O)C(C)CO (stereo not shown) [Example 55] | 0.059 mL/min/mg protein | 8.52 | 10.00 | 7.11 |  |
| CCN(CCN1CCC(c2noc3cc(Cl)ccc23)CC1)S(=O)(=O)CCO [Example 60] |  | 7.14 | 7.61 | < 6.00 |  |
| CCN(CCN1CCC(c2noc3cc(F)ccc23)CC1)C(=O)C(O)CN (stereo not shown) [Example 65, 3-Amino-N-ethyl-N-{2-[4-(6-fluoro-1,2-benzoisoxazol-3-yl)piperidin-1-yl]ethyl}-2-hydroxypropanamide] | <0.05 mL/min/mg protein | 7.09 | 8.12 | 6.71 |  |
| CCN(CCN1CCC(c2noc3cc(F)ccc23)CC1)C(=O)C1CN(C(C)=O)CC1O (stereo not shown) [Example 73] |  | 7.09 | 7.84 | 6.69 |  |

Now from value to compound, other results behind:

| Metabolic stability in human hepatic microsome [1] | pIC50 (human 5-HT7 receptor [2]) | pKi (human 5-HT7 receptor [3]) | pKi (human D2 receptor) | SMILES | pIC50 (hERG channel) |
| --- | --- | --- | --- | --- | --- |
| <0.05 mL/min/mg protein | 7.03 | 8.03 | < 6.00 | CCN(CCN1CCC(n2ncc3cc(F)ccc32)CC1)C(=O)CCO [Example 2, N-Ethyl-N-{2-[4-(5-fluoro-1H-indazol-1-yl)piperidin-1-yl]ethyl}-3-hydroxypropanamide] | 5.13 |
| 0.186 mL/min/mg protein | 7.18 | 8.62 | 6.94 | CCN(CCN1CCC(c2noc3cc(F)ccc23)CC1)C(=O)C(O)CCC(=O)OC (stereo not shown) [Example 5] | 5.96 |
| <0.05 mL/min/mg protein | 8.10 | 8.80 | > 7.00 | CCN(CCN1CCC(c2noc3cc(F)ccc23)CC1)C(=O)C1CCC(O)CC1 (stereo not shown) [Example 9] |  |
| <0.05 mL/min/mg protein | 8.05 | 8.57 | > 7.00 | CCN(CCN1CCC(c2noc3cc(F)ccc23)CC1)C(=O)CC(C)O (stereo not shown) [Example 10] | 5.44 |
| <0.05 mL/min/mg protein | 7.17 | 8.28 | > 7.00 | CCN(CCN1CCC(c2noc3cc(F)ccc23)CC1)C(=O)C1(O)CCOCC1 [Example 11] | 4.98 |
| 0.089 mL/min/mg protein | 7.09 | 8.16 |  | CCN(CCN1CCC(c2noc3cc(F)ccc23)CC1)C(=O)CO [Example 12] | 5.66 |
|  | 7.09 | 7.84 | < 6.00 | CCN(CCN1CCC(c2noc3ccc(C)cc23)CC1)C(=O)[C@H](C)O [Example 14] | 5.02 |
|  | 7.07 | 7.58 | < 6.00 | CCN(CCN1CCC(c2noc3cc(Cl)ccc23)CC1)C(=O)[C@H](C)O [Example 15] |  |
| <0.05 mL/min/mg protein | 7.40 | 8.24 | 6.28 | CCN(CCN1CCC(c2c[nH]c3ccccc23)CC1)C(=O)C(C)O (stereo not shown) [Example 22, N-Ethyl-2-hydroxy-N-{2-[4-(1H-indol-3-yl)piperidin-1-yl]ethyl}propanamide] | < 5.00 |
|  | 7.14 | 6.96 | < 5.00 | CC(O)C(=O)N(CC#N)CCN1CCC(c2noc3cc(F)ccc23)CC1 (stereo not shown) [Example 32] |  |
| <0.05 mL/min/mg protein |  |  |  | [2H]C(C)(O)C(=O)N(CC)CCN1CCC(c2noc3cc(F)ccc23)CC1 (stereo not shown) [Example 40] | 5.00 |
| <0.05 mL/min/mg protein | 7.09 | 8.37 | > 7.00 | CCN(CCN1CCC(c2noc3cc(F)ccc23)CC1)C(=O)[C@H]1CC[C@H](O)CC1 [Example 43] |  |
| <0.05 mL/min/mg protein | 7.08 | 8.38 | 7.12 | CCN(CCN1CCC(c2noc3cc(F)ccc23)CC1)C(=O)C1CC(O)C1 (stereo not shown) [Example 46] |  |
| <0.05 mL/min/mg protein | 9.00 | 8.59 | 6.94 | CCN(CCCN1CCC(c2noc3ccccc23)CC1)S(=O)(=O)C(C)CO (stereo not shown) [Example 54] |  |
| <0.05 mL/min/mg protein | 7.04 | 7.31 | 6.04 | CCN(CCN1CCC(c2noc3cc(F)ccc23)CC1)C(=O)[C@H]1NCC[C@H]1O [Example 68] |  |
